# Measured values from US4652568A, “Theophylline-7-acetic acid ester of d,l-trans-sobrerol having mucosecretolytic-fluidizing and antibronchospastic activity, a process for its preparation and pharmaceutical compositions thereof” (priority 1984, dated 1987).
# Columns and labels:
# [1] = system: bronchospasm induced by hystamine; assay: Antibronchospastic activity in the guinea-pig, method of Konzett and Rossler; assay type: in vivo; details: drug i.v., inhibition of bronchospasm by hystamine (6 to 20 mg/kg i.v.), relative to theophylline, taken equal to 100
# Protocol: Spotted female guinea-pigs, with a body weight of 300-500 g., are used.
# As a spasmogenous agent, hystamine (6 to 20 mg/kg i.v.) is used. The activity is defined as percent inhibition of the bronchospasm induced by hystamine in the presence of the drug (i.v. administered), compared to the one of hystamine alone in the presence of the solvent.
# The drugs are dissolved into 2% dimethylformamide in physiological solution (solvent).
# [2] = system: mucoproduction (bronchial secretion); assay: Bronchosecretagogue activity: mucoproduction in the rabbit according to Scuri; assay type: in vivo; details: for Bronchosecretagogue activity: rabbit, oral, percent increase of mucoproduction II vs I period, relative to d,l-trans-sobrerol, taken equal to 100
# Protocol: Method of mucoproduction in the rabbit according to Scuri R. et al, Boll. Chim. Farm.
# Male brown rabbits weighing 2.8-3.5 kg are used. To said animals, by a surgical operation under anaesthesia, a T shaped tracheal cannula is applied, as described in the above mentioned bibliographic reference.
# To the cannula, a container (a polypropylene 2 ml test tube) is applied for periodical collection of the bronchial secretion.
# The study of mucoproduction, started at the fourth day after the operation, is divided into two 4 hour periods for collecting and measuring the mucus, and precisely from 8:30 to 12:30 (I) and from 12:30 to 16:30 (II).
# The activity of each drug is tested by administering the same by oesophageal way (os) at the begining of the II period and by evaluating the percent increase of mucoproduction (weight of the mucus as collected) over the II period as compared to the I period.
# [3] = Pharmacocinetics: plasma levels (HPLC) and presence in tracheo-bronchial excretion and pulmonary tissue; assay type: in vivo, Wistar rats; details: rat, 300 mg/kg oral
# Protocol: Two groups of Wistar rats (165.div.250 g) are utilized. Before treatment, the animals were fasting for about 15 hours and were allowed to drink a 10% glucose solution ad libitum.
# To the first group, the compound of formula (I) of this invention, orally (transoesophageal intubation) at the dose of 300 mg/kg is administered (a single administration) and at 0.5 h; 1 h; 1.5 h; 2 h; 3 h; 4 h; and 6 h from administration 5 rats/time are sacrificed. The blood, as collected into test tubes containing sodium heparin is centrifuged, and the plasma so obtained is utilized for quantitative analysis of the product, by means of high pressure liquid chromatography (HPLC) with an U.V. detector. To the second group, the compound of formula (I) of this invention at the dose of 300 mg/kg orally is administered (a single administration), and at 1 h and 2 h from administration, 5 rats/time are sacrificed (by bleeding). To each rat, trachea, bronchia and lungs are withdrawn. From trachea and bronchia, by means of two washings with a 0.5 ml syringe containing physiological solution, introduced into the trachea, the tracheo-bronchialexcretion is recovered, which is utilized to evaluate quantitatively the presence of the compound of formula (I) of the present invention. The pulmonary tissue, to which a KCl solution has been added, is homogenized by an ultra Turrax apparatus and utilized for the quantitative testing of the presence of the compound of formula (I) of this invention. […] In relation to the activity shown on by the compound of the invention as a mucosecretolytic-fluidizing-anti-bronchospastic agent, the present invention further provides pharmaceutical compositions containing the compound of formula (I) of this invention in dosage units.
# [4] = Acute toxicity: LD50 in the mouse after a single oral administration; details: in vivo, mortality at 14th day, Litchfield and Wilcoxon
# Protocol: Method for studying LD50 in the mouse after a single oral administration.
# Groups of 10 Swiss albine, female, adult mice (20-22 g), fasting from the evening preceding the test, are treated orally with various doses (4 to 5) of the test drugs, dissolved/suspended in 1% hydroxycellulose (volume administered 20 ml/kg). Thereafter, the animals are fed again (Morini MIL fodder for mice).
# The 50% lethal dose (LD50) is calculated by the method of Litchfield J. T. and Wilcoxon F. (J. Pharmacol. 96, 99-113, 1949) by utilizing the mortality data as obtained at the 14th day after the drug treatment.
# [5] = system: bronchial mucus of bronchitic rabbits; assay: Fluidizing "in vivo" activity: viscosity of the bronchial mucus of bronchitic rabbits; design: species or system rabbit; details: for Fluidizing "in vivo" activity of bronchial mucus: bronchitic rabbits, oral, relative to d,l-trans-sobrerol taken equal to 100
# Protocol: Method for studying viscosity of the bronchial mucus of a bronchitic rabbit.
# Viscosity of the mucus as withdrawn is studied by using a Contraves RM16 microviscosimeter and it is recorded by a Rheomat 15T-FC apparatus.
Structure (SMILES),Antibronchospastic activity [1],Bronchosecretagogue activity [2],"mucosecretolytic activity compared with d,l-trans-sobrerol, in words ([2]; summary statement)",presence at the level of tracheo-bronchial mucus ([3]; 1 h and 2 h),presence in the pulmonary parenchyma ([3]; 1 h and 2 h),"absorption (course of the plasmatic levels) ([3]; single administration, plasma 0.5 to 6 h)",LD50 at 336 h [4] [mg/kg],"Fluidizing ""in vivo"" activity of bronchial mucus [5]","fluidizing activity compared with d,l-trans-sobrerol, in words ([5]; summary statement)"
"CC1=CC[C@H](C(C)(C)O)C[C@H]1OC(=O)Cn1cnc2c1c(=O)n(C)c(=O)n2C (relative stereo) [CO/1488, 5-hydroxy-α,α-4-trimethyl-3-cyclohexene-1-methanol-5-[2[7[1,2,3,6-tetrahydro-1,3-dimethyl-2,6-dioxopurinyl]]]acetate]",143,128,slight potency increase,found also at the level of tracheo-bronchial mucus,in the pulmonary parenchyma,quick and good absorption,1900,110,slight potency increase
"CC1=CC[C@H](C(C)(C)O)C[C@H]1O (relative stereo) [d,l-trans-sobrerol]",0,100,,,,,,100,
Cn1c(=O)c2[nH]cnc2n(C)c1=O [theophylline],100,0,,,,,,0,
